Starred links: 1 amine or outer side, 2 acyl side, 3 side chain; linkers in the order of their positions; H or OH if unused. Non-standard residues stand in square brackets, D forms with d. Residues, ends and D or L forms follow the SMILES beside them. *: point of attachment. Arg(NO2) = N=C(NCCC[C@H](N)C(=O)O)N[N+](=O)[O-]; Tyr(Me) = COc1ccc(C[C@H](N[*:1])C(=O)[*:2])cc1; 2Nal = N[C@@H](Cc1ccc2ccccc2c1)C(=O)O; d1Nal = N[C@H](Cc1cccc2ccccc12)C(=O)O; d2Nal = N[C@H](Cc1ccc2ccccc2c1)C(=O)O; Arg(Me) = CNC(=N)NCCC[C@H](N)C(=O)O; 2Thi = N[C@@H](Cc1cccs1)C(=O)O; Cha = N[C@@H](CC1CCCCC1)C(=O)O; aThr = C[C@H](O)[C@H](N)C(=O)O; Tos = Cc1ccc(S(=O)(=O)*)cc1; NMeS = CN[C@@H](CO)C(=O)O; Abu = CC[C@H](N)C(=O)O; Dap = NC[C@H](N)C(=O)O; Bz = O=C(c1ccccc1)*; azaGly = NNC(=O)O

The target of this test is T1, hOT7T175 (Homo sapiens, UniProt Q969F8, L364H).
T1 construct: expressed in transfected cells
T1 sequence (Q969F8 whole entry L364H): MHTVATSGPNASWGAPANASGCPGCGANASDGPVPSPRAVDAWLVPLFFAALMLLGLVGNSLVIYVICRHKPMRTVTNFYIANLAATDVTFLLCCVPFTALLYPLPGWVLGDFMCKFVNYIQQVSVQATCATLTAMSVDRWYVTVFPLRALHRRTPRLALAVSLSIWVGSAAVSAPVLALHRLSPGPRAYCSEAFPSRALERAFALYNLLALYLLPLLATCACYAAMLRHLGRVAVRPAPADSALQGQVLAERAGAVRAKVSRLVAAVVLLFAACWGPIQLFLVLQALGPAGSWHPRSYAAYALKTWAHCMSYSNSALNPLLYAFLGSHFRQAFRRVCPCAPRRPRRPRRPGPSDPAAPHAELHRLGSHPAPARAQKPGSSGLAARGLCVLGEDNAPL
In kind it is cell-based. Particulars: hOT7T175/CHO, FLIPR, evaluation for 40 seconds after initiation of the reaction.
Method: The intracellular Ca ion level-increasing activity was measured using FLIPR as in TEST EXAMPLE 2.
As to “Ac-[d1Nal][dW]NTF[azaGly]L[Arg(Me)]W-NH2 [Compound No. 619]”, the “Specific Act. (EC50/MS10 EC50)” value is listed as 1.5.
In the case of “Arg-Arg-D-Tyr-D-Pya(4)-Asn-Ser-Phe-AzaGly-Leu-Arg(Me)-Trp-NH2 [Compound No. 537]”, the “Specific Act. (EC50/MS10 EC50)” value is given as 4.7.
For “Ac-[d2Nal][dW]NTF[azaGly]L[Arg(Me)]W-NH2 [Compound No. 620]” the value was 1.7; for “Ac-[dY][dW]NT[Cha][azaGly]L[Arg(Me)]W-NH2 [Compound No. 696]”, 0.5; for “Ac-[dY][dW]D(NHMe)TF[azaGly]L[Arg(Me)]W-NH2 [Compound No. 702]”, 0.6.
As for “Ac-[dY][dW]NTF[azaGly]LKW-NH2 [Compound No. 639]”, the “Specific Act. (EC50/MS10 EC50)” value is 2.
As to “Ac-[dY][dW]NT[2Thi][azaGly]L[Arg(Me)]W-NH2 [Compound No. 695]”, the “Specific Act. (EC50/MS10 EC50)” value came out at 0.7.
As to “Ac-[dY][dW]N[dT]F[azaGly]L[Arg(Me)]W-NH2 [Compound No. 654]”, the “Specific Act. (EC50/MS10 EC50)” value is 2.9.
In the case of “Ac-[dY][dW]N[aThr]F[azaGly]L[Arg(Me)]W-NH2 [Compound No. 659]” it was 0.6.
For the molecule “Arg-D-Tyr-D-Pya(4)-Asn-Ser-Phe-AzaGly-Leu-Arg(Me)-Trp-NH2 [Compound No. 536]”, the “Specific Act. (EC50/MS10 EC50)” value worked out at 1.8.
As to “2-Naphthoyl-Asn-Ser-Phe-AzaGly-Leu-Arg(Me)-Trp-NH2 [Compound No. 535]”, the “Specific Act. (EC50/MS10 EC50)” value came out at 0.8.
As for “Ac-[dY][dW][Abu]SF[azaGly]L[Arg(Me)]W-NH2 [Compound No. 573]”, the “Specific Act. (EC50/MS10 EC50)” value came to 0.7.
On to “Ac-[dY]WNT[dF][azaGly]L[Arg(Me)]W-NH2 [Compound No. 586]”, for which the “Specific Act. (EC50/MS10 EC50)” value came out at 0.3.
Take “Ac-D-Tyr-D-Trp-Asn-Thr-Tyr(Me)-AzaGly-Leu-Arg(Me)-Trp-NH2 (Ac-[dY][dW]NT[Tyr(Me)][azaGly]L[Arg(Me)]W-NH2; SMILES CNC(=N)NCCC[C@H](NC(=O)[C@H](CC(C)C)NC(=O)NNC(=O)[C@H](Cc1ccc(OC)cc1)NC(=O)[C@@H](NC(=O)[C@H](CC(N)=O)NC(=O)[C@@H](Cc1c[nH]c2ccccc12)NC(=O)[C@@H](Cc1ccc(O)cc1)NC(C)=O)[C@@H](C)O)C(=O)N[C@@H](Cc1c[nH]c2ccccc12)C(N)=O) [Compound No. 693]”: the “Specific Act. (EC50/MS10 EC50)” value is reported as 1.5.
As for “Ac-[dY][dW]DTF[azaGly]L[Arg(Me)]W-NH2 [Compound No. 647]”, the “Specific Act. (EC50/MS10 EC50)” value is recorded as 10.6.
As for “Ac-[dY][dW]NTF[azaGly]A[Arg(Me)]W-NH2 [Compound No. 641]”, the “Specific Act. (EC50/MS10 EC50)” value turned out to be 3.5.
“Ac-[dY][dW]NTF[azaGly]L[Arg(NO2)]W-NH2 [Compound No. 605]”: the “Specific Act. (EC50/MS10 EC50)” value is reported as 3.9.
On to “Ac-[dE][dW]NTF[azaGly]L[Arg(Me)]W-NH2 [Compound No. 622]”, for which the “Specific Act. (EC50/MS10 EC50)” value came to 2.8.
With “Ac-D-Tyr-D-Trp-Asn-Thr-Tyr-AzaGly-Leu-Arg(Me)-Trp-NH2 (Ac-[dY][dW]NTY[azaGly]L[Arg(Me)]W-NH2; SMILES CNC(=N)NCCC[C@H](NC(=O)[C@H](CC(C)C)NC(=O)NNC(=O)[C@H](Cc1ccc(O)cc1)NC(=O)[C@@H](NC(=O)[C@H](CC(N)=O)NC(=O)[C@@H](Cc1c[nH]c2ccccc12)NC(=O)[C@@H](Cc1ccc(O)cc1)NC(C)=O)[C@@H](C)O)C(=O)N[C@@H](Cc1c[nH]c2ccccc12)C(N)=O) [Compound No. 691]”, the “Specific Act. (EC50/MS10 EC50)” value worked out at 1.1.
“Ac-D-Tyr-Pya(4)-Asn-Thr-Phe-AzaGly-Leu-Arg(Me)-Trp-NH2 [Compound No. 624]”: the “Specific Act. (EC50/MS10 EC50)” value worked out at 1.2.
As to “Ac-[dY][dT]NTF[azaGly]L[Arg(Me)]W-NH2 [Compound No. 628]”, the “Specific Act. (EC50/MS10 EC50)” value is recorded as 4.4.
For `CNC(=N)NCCC[C@H](NC(=O)[C@H](CC(C)C)NC(=O)NNC(=O)[C@H](Cc1ccccc1)NC(=O)[C@H](CO)NC(=O)[C@H](CC(N)=O)NC(=O)[C@H](CO)NC(=O)[C@H](N)Cc1ccc(O)cc1)C(=O)N[C@@H](Cc1ccccc1)C(N)=O` [Compound No. 239, D-Tyr-Ser-Asn-Ser-Phe-AzaGly-Leu-Arg(Me)-Phe-NH2] (H-[dY]SNSF[azaGly]L[Arg(Me)]F-NH2), the “Specific Act. (EC50/MS10 EC50)” value is 6.7.
“Ac-D-Tyr-D-Pya(4)-Asn-Thr-Phe-AzaGly-Leu-Arg(Me)-Phe-NH2 [Compound No. 685]”: the “Specific Act. (EC50/MS10 EC50)” value was 4.8.
With “Ac-[dR][dY][dW]NTF[azaGly]L[Arg(Me)]W-NH2 [Compound No. 568]”, the “Specific Act. (EC50/MS10 EC50)” value worked out at 0.6.
As to `CC[C@H](C)[C@H](NC(=O)[C@H](N)Cc1ccc(O)cc1)C(=O)N[C@@H](CC(N)=O)C(=O)N[C@@H](CO)C(=O)N[C@@H](Cc1ccccc1)C(=O)NNC(=O)N[C@@H](CC(C)C)C(=O)N[C@@H](CCCNC(=N)NC)C(=O)N[C@@H](Cc1ccccc1)C(N)=O` [Compound No. 240, D-Tyr-Ile-Asn-Ser-Phe-AzaGly-Leu-Arg(Me)-Phe-NH2] (H-[dY]INSF[azaGly]L[Arg(Me)]F-NH2), the “Specific Act. (EC50/MS10 EC50)” value is 4.9.
For “D-Tyr-D-Pya(4)-Asn-Tle-Phe-AzaGly-Leu-Arg(Me)-Trp-NH2 [Compound No. 529]”, the “Specific Act. (EC50/MS10 EC50)” value was 1.8.
On to “Ac-[dY][dW][Dap](Ac)SF[azaGly]L[Arg(Me)]W-NH2 [Compound No. 584]”, for which the “Specific Act. (EC50/MS10 EC50)” value stood at 0.4.
As for “Ac-D-Tyr-D-Trp-Asn-Thr-Phe-AzaGly-Ile-Arg(Me)-Trp-NH2 (Ac-[dY][dW]NTF[azaGly]I[Arg(Me)]W-NH2; SMILES CC[C@H](C)[C@H](NC(=O)NNC(=O)[C@H](Cc1ccccc1)NC(=O)[C@@H](NC(=O)[C@H](CC(N)=O)NC(=O)[C@@H](Cc1c[nH]c2ccccc12)NC(=O)[C@@H](Cc1ccc(O)cc1)NC(C)=O)[C@@H](C)O)C(=O)N[C@@H](CCCNC(=N)NC)C(=O)N[C@@H](Cc1c[nH]c2ccccc12)C(N)=O) [Compound No. 678]”, the “Specific Act. (EC50/MS10 EC50)” value came to 1.1.
As for “Ac-[dY][dW]NS(Me)F[azaGly]L[Arg(Me)]W-NH2 [Compound No. 580]”, the “Specific Act. (EC50/MS10 EC50)” value came out at 0.6.
In the case of “Ac-[dY][dW]QSF[azaGly]L[Arg(Me)]W-NH2 [Compound No. 576]”, the “Specific Act. (EC50/MS10 EC50)” value came to 0.8.
As to “Ac-[dY][dW]N[NMeS]F[azaGly]L[Arg(Me)]W-NH2 [Compound No. 656]”, the “Specific Act. (EC50/MS10 EC50)” value came to 2.9.
As to “Benzoyl-D-Trp-Asn-Thr-Phe-AzaGly-Leu-Arg(Me)-Trp-NH2 (Bz-[dW]NTF[azaGly]L[Arg(Me)]W-NH2; SMILES CNC(=N)NCCC[C@H](NC(=O)[C@H](CC(C)C)NC(=O)NNC(=O)[C@H](Cc1ccccc1)NC(=O)[C@@H](NC(=O)[C@H](CC(N)=O)NC(=O)[C@@H](Cc1c[nH]c2ccccc12)NC(=O)c1ccccc1)[C@@H](C)O)C(=O)N[C@@H](Cc1c[nH]c2ccccc12)C(N)=O) [Compound No. 669]”, the “Specific Act. (EC50/MS10 EC50)” value is recorded as 0.5.
For “D-Arg-Acp-D-Tyr-D-Trp-Abu-Ser-Phe-AzaGly-Leu-Arg(Me)-Trp-NH2 [Compound No. 561]”, the “Specific Act. (EC50/MS10 EC50)” value was found to be 1.6.
In the case of “3-Phenylpropionyl-Asn-Ser(Ac)-Phe-AzaGly-Leu-Arg(Me)-Trp-NH2 [Compound No. 546]” it was 1.9.
In the case of “Ac-[dY][dW]NT[2Nal][azaGly]L[Arg(Me)]W-NH2 [Compound No. 694]”, the “Specific Act. (EC50/MS10 EC50)” value was determined as 1.7.
As to “Ac-D-Tyr-D-Trp-Asn-Thr-Trp-AzaGly-Leu-Arg(Me)-Trp-NH2 (Ac-[dY][dW]NTW[azaGly]L[Arg(Me)]W-NH2; SMILES CNC(=N)NCCC[C@H](NC(=O)[C@H](CC(C)C)NC(=O)NNC(=O)[C@H](Cc1c[nH]c2ccccc12)NC(=O)[C@@H](NC(=O)[C@H](CC(N)=O)NC(=O)[C@@H](Cc1c[nH]c2ccccc12)NC(=O)[C@@H](Cc1ccc(O)cc1)NC(C)=O)[C@@H](C)O)C(=O)N[C@@H](Cc1c[nH]c2ccccc12)C(N)=O) [Compound No. 692]”, the “Specific Act. (EC50/MS10 EC50)” value stood at 0.7.
As to “D-Tyr-D-Pya(4)-Asn-Hyp-Phe-AzaGly-Leu-Arg(Me)-Trp-NH2 [Compound No. 527]”, the “Specific Act. (EC50/MS10 EC50)” value was 3.3.
As to “Ac-D-Tyr-D-Pro-Asn-Thr-Phe-AzaGly-Leu-Arg(Me)-Trp-NH2 (Ac-[dY][dP]NTF[azaGly]L[Arg(Me)]W-NH2; SMILES CNC(=N)NCCC[C@H](NC(=O)[C@H](CC(C)C)NC(=O)NNC(=O)[C@H](Cc1ccccc1)NC(=O)[C@@H](NC(=O)[C@H](CC(N)=O)NC(=O)[C@H]1CCCN1C(=O)[C@@H](Cc1ccc(O)cc1)NC(C)=O)[C@@H](C)O)C(=O)N[C@@H](Cc1c[nH]c2ccccc12)C(N)=O) [Compound No. 661]”, the “Specific Act. (EC50/MS10 EC50)” value turned out to be 8.5.
Consider “Ac-[dY][dW]NTF[azaGly]LR(Tos)W-NH2 [Compound No. 604]”, for which the “Specific Act. (EC50/MS10 EC50)” value is listed as 6.3.
For “Ac-D-Tyr-D-Trp-Asn-Aze(2)-Phe-AzaGly-Leu-Arg(Me)-Trp-NH2 [Compound No. 563]”, the “Specific Act. (EC50/MS10 EC50)” value is listed as 0.7.
For `CNC(=N)NCCC[C@H](NC(=O)[C@H](CC(C)C)NC(=O)CNC(=O)[C@H](Cc1ccccc1)NC(=O)[C@H](CO)NC(=O)[C@H](CC(N)=O)NC(=O)[C@H](Cc1c[nH]c2ccccc12)NC(=O)[C@H](CC(N)=O)NC(=O)[C@@H](N)Cc1ccc(O)cc1)C(=O)N[C@@H](Cc1ccccc1)C(N)=O` [Compound No. 82], the “Specific Act. (EC50/MS10 EC50)” value was 1.0.
“3-Phenylpropionyl-Asn-Ser-Cha-Gly-Leu-Arg(Me)-Trp-NH2 [Compound No. 518]”: the “Specific Act. (EC50/MS10 EC50)” value is recorded as 10.5.
“Phenylacetyl-Asn-Ser-Phe-AzaGly-Leu-Arg(Me)-Trp-NH2 [Compound No. 519]”: the “Specific Act. (EC50/MS10 EC50)” value is recorded as 2.4.
For the molecule “Ac-Tyr-D-Pya(4)-Asn-Thr-Phe-AzaGly-Leu-Arg(Me)-Trp-NH2 [Compound No. 611]”, the “Specific Act. (EC50/MS10 EC50)” value is 1.7.
“Glycoloyl-D-Trp-Asn-Thr-Phe-AzaGly-Leu-Arg(Me)-Trp-NH2 (Glycoloyl-[dW]NTF[azaGly]L[Arg(Me)]W-NH2) [Compound No. 680]”: the “Specific Act. (EC50/MS10 EC50)” value is 2.5.
In the case of “Amidino-D-Tyr-D-Trp-Asn-Thr-Phe-AzaGly-Leu-Arg(Me)-Trp-NH2 [Compound No. 614]”, the “Specific Act. (EC50/MS10 EC50)” value came out at 0.8.
